Columns and labels:
Assay type in all cases: biochemical
[1] = biological target: BRISC BRCC36 R167A (Homo sapiens, UniProt P46736+Q15018+Q9NXR7, R167A); test: BRISC mutant IQF assay: BRCC36 R167A
Experimental: (§1) IQF assays were performed in DUB reaction buffer containing 50 mM HEPES–NaOH pH 7.0, 100 mM NaCl, 0.1 mg ml^−1 BSA, 1 mM DTT and 0.03% v/v Brij-35. […] The final concentration of BRISC WT, all BRISC mutants, HsBRISCΔLoop, MmBRISC and DrBRISCΔNΔC was 1 nM. Other enzymes were tested at the following concentrations: 5 nM ARISC (FL), 10 nM CfBRISCΔNΔC, 250 nM AMSH* (ref. [43]), 500 nM USP2 and 1 μM trypsin (Sigma, 9002-07-7). For Michaelis–Menten experiments, 1 nM BRISC with 0–1 μM IQF K63-linked diubiquitin substrate was used. Michaelis–Menten analyses and Lineweaver–Burk plots were calculated using GraphPad Prism (version 9.0).
(§2) To assess enzymatic activity, BRISC complexes were diluted to concentrations between 1 nM and 50 nM. […] Then, 20-μl enzyme reactions were carried out in 384-well black flat-bottom low-flange plates (Corning, 35373). DUB activity was measured using IQF K63-linked diubiquitin (LifeSensors, DU6303) at 50 nM. Cleaved diubiquitin was monitored by measuring fluorescence intensity (excitation, 544 nm; emission, 575 nm; dichroic mirror, 560 nm). Fluorescence intensity was measured every minute for 30 min at 30 °C. Fluorescence intensity units were plotted against time to generate a linear reaction progress curve, where the initial velocity (V0) corresponds to the gradient of the curve (typically achieved within 15 min). IC50 values were calculated using the GraphPad Prism (version 9.0) built-in dose–response equation for inhibitor concentration versus response (variable slope).

[2] = biological target: BRISC BRCC45 R137A (Homo sapiens, UniProt P46736+Q15018+Q9NXR7, R137A); test: BRISC mutant IQF assay: BRCC45 R137A
Experimental: as §1, §2

[3] = biological target: BRISC BRCC45 C245A (Homo sapiens, UniProt P46736+Q15018+Q9NXR7, C245A); test: BRISC mutant IQF assay: BRCC45 C245A
Experimental: as §1, §2

[4] = biological target: BRISC Abraxas2 T140A (Homo sapiens, UniProt P46736+Q15018+Q9NXR7, T140A); test: BRISC mutant IQF assay: Abraxas2 T140A
Experimental: as §1, §2

[5] = biological target: BRISC BRCC45 R137A+F140A (Homo sapiens, UniProt P46736+Q15018+Q9NXR7, F140A/R137A); test: BRISC mutant IQF assay: BRCC45 R137A+F140A
Experimental: as §1
(§3) To assess enzymatic activity, BRISC complexes were diluted to concentrations between 1 nM and 50 nM. […] DUB activity was measured using IQF K63-linked diubiquitin (LifeSensors, DU6303) at 50 nM. Cleaved diubiquitin was monitored by measuring fluorescence intensity (excitation, 544 nm; emission, 575 nm; dichroic mirror, 560 nm). Fluorescence intensity was measured every minute for 30 min at 30 °C. Fluorescence intensity units were plotted against time to generate a linear reaction progress curve, where the initial velocity (V0) corresponds to the gradient of the curve (typically achieved within 15 min). IC50 values were calculated using the GraphPad Prism (version 9.0) built-in dose–response equation for inhibitor concentration versus response (variable slope).

[6] = biological target: BRISC Abraxas2 T135K (Homo sapiens, UniProt P46736+Q15018+Q9NXR7, T135K); test: BRISC mutant IQF assay: Abraxas2 T135K
Experimental: as §1, §2

[7] = biological target: BRISC BRCC36 W130A (Homo sapiens, UniProt P46736+Q15018+Q9NXR7, W130A); test: BRISC mutant IQF assay: BRCC36 W130A
Experimental: as §1, §2

[8] = biological target: BRISC Abraxas2 I133W (Homo sapiens, UniProt P46736+Q15018+Q9NXR7, I133W); test: BRISC mutant IQF assay: Abraxas2 I133W
Experimental: as §1, §3

[9] = biological target: BRISC BRCC36 L169A (Homo sapiens, UniProt P46736+Q15018+Q9NXR7, L169A); test: BRISC mutant IQF assay: BRCC36 L169A
Experimental: as §1, §2

[10] = biological target: BRISC BRCC45 D248R (Homo sapiens, UniProt P46736+Q15018+Q9NXR7, D248R); test: BRISC mutant IQF assay: BRCC45 D248R
Experimental: as §1, §2

[11] = biological target: BRISC BRCC36 L169R (Homo sapiens, UniProt P46736+Q15018+Q9NXR7, L169R); test: BRISC mutant IQF assay: BRCC36 L169R
Experimental: as §1, §2

[12] = biological target: BRISC BRCC36 L169W (Homo sapiens, UniProt P46736+Q15018+Q9NXR7, L169W); test: BRISC mutant IQF assay: BRCC36 L169W
Experimental: as §1, §2

[13] = FX-171-C 0.035 μM, read-out: Normalised V0
[14] = FX-171-C 0.35 μM, read-out: Normalised V0
[15] = FX-171-C 3.1 μM, read-out: Normalised V0
[16] = FX-171-C 6.25 μM, read-out: Normalised V0
[17] = FX-171-C 12.5 μM, read-out: Normalised V0
[18] = FX-171-C 100 μM, read-out: Normalised V0
[19] = FX-171-C 25 μM, read-out: Normalised V0
[20] = FX-171-C 0.0035 μM, read-out: Normalised V0
[21] = FX-171-C 50 μM, read-out: Normalised V0

O=C(NC1C2CNCC21)c1nn(C(=O)c2c(Cl)cccc2Cl)cc1NC(=O)c1c(Cl)cccc1Cl (centres unmarked) [FX-171-C]
IC50 [1]: 1.4 µM | inhibitor sensitivity vs BRISC WT [1]: remained inhibitor sensitive | remaining activity at 0.035 µM [1, 13]: 98.5% | remaining activity at 0.35 µM [1, 14]: 78.4% | remaining activity at 3.1 µM [1, 15]: 25.5% | remaining activity at 6.25 µM [1, 16]: 20.8% | remaining activity at 12.5 µM [1, 17]: 15% | remaining activity at 100 µM [1, 18]: 4.9% | IC50 [2]: > 100 µM | inhibitor sensitivity vs BRISC WT [2]: reduced sensitivity to inhibition | remaining activity at 12.5 µM [2, 17]: 87.5% | remaining activity at 25 µM [2, 19]: 80.1% | IC50 [3]: 31 µM | inhibitor sensitivity vs BRISC WT [3]: reduced sensitivity to inhibition | remaining activity at 0.0035 µM [3, 20]: 97.7% | remaining activity at 0.035 µM [3, 13]: 74.6% | remaining activity at 0.35 µM [3, 14]: 94.7% | remaining activity at 6.25 µM [3, 16]: 66.4% | remaining activity at 12.5 µM [3, 17]: 43.3% | remaining activity at 25 µM [3, 19]: 46.6% | IC50 ([4]; Abraxas 2 T140A): 5 µM | inhibitor sensitivity vs BRISC WT ([4]; Abraxas 2 T140A): IC50 tenfold higher than BRISC WT | remaining activity at 0.0035 µM ([4]; Abraxas2 T140A, FX-171-C 0.0035 μM, read-out: Normalised V0): 89.1% | remaining activity at 0.35 µM ([4]; Abraxas2 T140A, FX-171-C 0.35 μM, read-out: Normalised V0): 99.5% | remaining activity at 3.1 µM ([4]; Abraxas2 T140A, FX-171-C 3.1 μM, read-out: Normalised V0): 53.4% | IC50 [5]: 52 µM | remaining activity at 0.035 µM [5, 13]: 79.9% | IC50 [6]: 1.5 µM | inhibitor sensitivity vs BRISC WT [6]: moderate to little effect on inhibitor sensitivity | remaining activity at 0.35 µM [6, 14]: 73.4% | remaining activity at 3.1 µM [6, 15]: 20.9% | IC50 [7]: 23 µM | remaining activity at 0.0035 µM [7, 20]: 95.2% | remaining activity at 0.035 µM [7, 13]: 96.5% | remaining activity at 12.5 µM [7, 17]: 67.5% | remaining activity at 50 µM [7, 21]: 40.4% | remaining activity at 100 µM [7, 18]: 21% | IC50 [8]: 2.3 µM | inhibitor sensitivity vs BRISC WT [8]: moderate to little effect on inhibitor sensitivity | IC50 [9]: 33 µM | reduction of inhibition over wild-type complex [9]: > 100 fold | remaining activity at 0.035 µM [9, 13]: 94.7% | remaining activity at 3.1 µM [9, 15]: 98.4% | remaining activity at 50 µM [9, 21]: 40.6% | remaining activity at 100 µM [9, 18]: 22.1% | remaining activity at 200 µM ([9]; FX-171-C 200 μM, read-out: Normalised V0): 10.5% | IC50 [10]: > 100 µM | inhibitor sensitivity vs BRISC WT [10]: reduced sensitivity to inhibition | remaining activity at 0.0035 µM [10, 20]: 91.7% | remaining activity at 0.035 µM [10, 13]: 97.4% | remaining activity at 0.35 µM [10, 14]: 91.7% | IC50 [11]: 75 µM | reduction of inhibition over wild-type complex [11]: > 100 fold | remaining activity at 0.0035 µM [11, 20]: 98.8% | remaining activity at 0.035 µM [11, 13]: 96.8% | remaining activity at 0.35 µM [11, 14]: 93.7% | remaining activity at 3.1 µM [11, 15]: 89.5% | remaining activity at 25 µM [11, 19]: 88% | IC50 [12]: 91 µM | reduction of inhibition over wild-type complex [12]: > 100 fold | remaining activity at 0.0035 µM [12, 20]: 94% | remaining activity at 0.035 µM [12, 13]: 91.9% | remaining activity at 0.35 µM [12, 14]: 94% | remaining activity at 3.1 µM [12, 15]: 93.5% | remaining activity at 6.25 µM [12, 16]: 90.3% | remaining activity at 12.5 µM [12, 17]: 89.8% | remaining activity at 25 µM [12, 19]: 93.8% | remaining activity at 50 µM [12, 21]: 84.8%

— paper PMC7617869, “Molecular glues that inhibit deubiquitylase activity and inflammatory signaling” (Nature Structural & Molecular Biology, 2025)
